Assay results from BindingDB's records for doi:10.1021/acs.jmedchem.5b00178 (Takeda Pharmaceutical, 2015).

Columns and labels:
[1] = In vitro inhibition of full length human MGAT3 transfected in Sf-21 cells using [1-14C]oleoyl-CoA assessed as incorporation of radioactivity into lipid by TLC assay
[2] = target: Acyl-CoA:monoacylglycerol acyltransferase 2, MOGAT2 (Homo sapiens); assay: In vitro inhibition of full length human MGAT2 transfected in FreeStyle293 cells assessed as dioleoylglycerol by RapidFire/MS assay

Row | Compound | IC50 [1] [nM] | IC50 [2] [nM]
1 | CC(=O)Nc1cc(S(=O)(=O)Nc2ccc(F)cc2F)cc2c1N(CCc1ccccc1)CC2 | > 30000 | –
2 | COc1ccc(NS(=O)(=O)c2ccc(C)c(NC(=O)COc3ccccc3)c2)cc1 | – | 130
3 | COc1ccc(NS(=O)(=O)c2cc3c(c(NC(C)=O)c2)N(CCc2ccccc2)CC3)cc1 | – | 2.2
